Patent US10131881B2, “Method for preparing induced pluripotency stem cells from mesenchymal stem cells by using phlorotannin fraction” (BBHC, priority 2014, dated 2018)
Where “and” joins values, the source holds several entries; their conditions need not be identical. Equal values may be shown once.

What was measured:
[1] = test system: OCT4, SOX2, SSEA-4, and AP; experiment: Immunochemical / AP staining of induced colonies for pluripotency stem cell-specific markers; assay type: cell-based, human; details: confocal microscopy; antibodies for OCT4, SOX2, SSEA-4; AP fluorogenic dye
Description: With respect to the pluripotency stem cells induced by the method of the present invention, whether to express stage-specific embryonic antigen4 (SSEA-4), alkaline phosphatase (AP), OCT4, and SOX2 as specific proteins to embryonic stem cells was analyzed by using antibodies thereof and an immunochemical staining method. During the staining process, cells were first fixed by using 4% paraformaldehyde and washed with PBS, and blocked with a 1% BSA solution. The cells were treated with primary antibodies for OCT4, SOX2, and SSEA-4 and reacted at 4° C. for 18 hours, and then washed with PBS, treated with secondary antibodies with fluorescence (FITC) to the primary antibodies, and reacted at room temperature for 1 hour. The cells were washed with PBS and then the expression was analyzed by using a confocal microscope. […] AP staining was performed with an alkaline phosphatase cell-permeable fluorogenic substrate dye, the AP fluorogenic dye was diluted in a DMEM F-12 culture solution to be treated in colonies, and then reacted for 20 to 30 min, washed with the DMEM F-12 culture solution two times, and the expression was analyzed by using a confocal microscope, and the result was illustrated in FIG. 17. […]

[2] = test system: mesenchymal stem cells derived from human umbilical cord; experiment: Induction of pluripotency stem cells from mesenchymal stem cells (colony formation); assay type: cell-based; details: DMEM F-12 basic medium plus 0.1 v/v % energy water
Description: An experiment for measuring induction ability of pluripotency stem cells from mesenchymal stem cells derived from human umbilical cord according to a concentration of the phlorotannin fraction prepared in Example 1-1 was performed. In a control group, DMEM F-12 (Gibco) as a dedicated medium of MSC, 10% FBS, 100 unit/ml penicillin, and 50 μg/ml streptomycin were used as a basic medium (Normal), and in an experimental group, mesenchymal stem cells derived from human which was subjected to three sub-cultures were used and phlorotannin fractions having concentrations of 1 μg/ml, 20 μg/ml, 50 μg/ml, 100 μg/ml, 400 μg/ml, 800 μg/ml, and 1000 μg/ml and 0.1 v/v % energy water (purified deionized water containing SiO2, Al2O3, TiO3, Fe2O3, CaO, Na2O, K2O, and LiO, STC) were added in the medium. The mesenchymal stem cells derived from human umbilical cord were isolated and washed and mononuclear cells were inoculated in a 6-well plate (dish) with 1×10^4 cells and maintained and incubated at 37° C. and 5% CO2.
An experiment for measuring induction ability of pluripotency stem cells from mesenchymal stem cells derived from human according to a concentration of compound 1 among the compounds isolated in Example 1-2 was performed. […]

## Oc1cc(O)cc(Oc2c(O)cc(O)c3c2Oc2c(O)cc(O)c(-c4c(O)cc(O)c5c4Oc4c(O)cc(Oc6c(O)cc(O)cc6O)c(Oc6cc(O)cc(O)c6)c4O5)c2O3)c1 [compound 1, 2-O-(2,4,6-trihydroxyphenyl)-6,6′-bieckol]
[1]
  staining of colonies by pluripotency stem cell-specific markers: stained by OCT4, SOX2, SSEA-4, and AP
[2]; at the colony-forming concentrations
  time after which colony formation was observed: 14 days
[2]; tested 1, 20, 50, 100, 400, 800, 1000 μg/ml, colonies only at stated concentrations
  concentration at which colonies were formed: 50 µg/mL and 100 µg/mL
